Data as given in patent US20260256751A1, “COMBINATION OF BETA-2-ADRENERGIC RECEPTOR AGONISTS AND GLP-1 RECEPTOR AGONISTS FOR USE IN TREATING HYPERGLYCAEMIA” (ATROGI AB, priority 2023, published 2026).

Experiments:
[1] = system: differentiated L6-myotubes; test: Glucose uptake screen (Biological example 1 of WO 2019/053427); type: cell-based; details: compound at 10 μM, activity relative to isoproterenol at 10 μM; for Emax at 10 µM: read-out: Biological example 1 of WO 2019/053427 (GU)
In short: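 Rat L6 myoblasts were differentiated into myotubes over 7 days in 2% FBS, then serum-starved overnight. Cells were stimulated with 1×10^−5 M compound plus β2 antagonist ICI-118551 for 1 h 40 min and re-dosed for 20 min in glucose-free medium. Uptake of 50 nM ^3H-2-deoxyglucose over 10 min was counted after NaOH lysis.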

[2] = system: differentiated L6-myotubes; test: cAMP production relative to isoprenaline (Biological example 2 of WO 2019/053427); type: cell-based; details: compound at 10 μM, activity relative to isoproterenol at 10 μM; for Emax at 10 µM: 0.25 h
In short: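 Differentiated L6 myotubes stimulated 15 min with test compound or isoprenaline, each at final 1×10^−5 M, in HBSS with 1% BSA, 5 mM HEPES, 1 mM IBMX, pH 7.4. cAMP production by the compound expressed relative to that induced by the same concentration of isoprenaline.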

Structure (SMILES)	Emax at 10 µM [1] [%]	Emax at 10 µM [2] [%]	Biological example 1 of WO 2019/053427 (GU) [1]	Biological example of WO 2019/053427 (cAMP) [2]
CCC[C@H]1CCC[C@@H]([C@H](O)c2cccc(F)c2)N1 [Compound 120, (R)-[(2S,6S)-6-propyl-2-piperidyl](m-fluorophenyl)methanol]	50 to 75	< 25	–	–
CCC[C@H]1CCC[C@@H]([C@@H](O)c2cccc(O)c2)N1 [Compound 121, (S)-[(2S,6S)-6-propyl-2-piperidyl](m-hydroxyphenyl)methanol]	> 75	< 25	–	–
CCC[C@H]1CCC[C@@H]([C@H](O)c2cccc(O)c2)N1 [Compound 122, (R)-[(2S,6S)-6-propyl-2-piperidyl](m-hydroxyphenyl)methanol]	50 to 75	< 25	–	–
CCC[C@H]1CCC[C@@H]([C@H](O)c2cccc(Cl)c2)N1 [Compound 123, (R)-[(2S,6S)-6-propyl-2-piperidyl](m-chlorophenyl)methanol]	25 to 50	< 25	–	–
CCC[C@H]1CC[C@H]([C@H](O)c2cccc(F)c2)N1 [Compound 124, (R)-[(2R,5S)-5-propyl-2-pyrrolidinyl](m-fluorophenyl)methanol]	50 to 75	< 25	–	–
CCC[C@H]1CC[C@H]([C@H](O)c2cccc(O)c2)N1 [Compound 125, m-{(R)-[(2R,5S)-5-propyl-2-pyrrolidinyl]hydroxymeth-yl}phenol]	50 to 75	< 25	–	–
CCC[C@@H]1CC[C@H]([C@@H](O)c2cccc(F)c2)N1 [Compound 126, (S)-[(2R,5R)-5-propyl-2-pyrrolidinyl](m-fluorophenyl)methanol]	25 to 50	< 25	–	–
CCC[C@@H]1CC[C@H]([C@@H](O)c2cccc(O)c2)N1 [Compound 127, m-{(S)-[(2R,5R)-5-propyl-2-pyrrolidinyl]hydroxymeth-yl}phenol]	25 to 50	< 25	–	–
CCC[C@H]1CCC[C@H]([C@H](O)c2cccc(Cl)c2)N1 [Compound 128, (R)-[(2R,6S)-6-propyl-2-piperidyl](m-chlorophenyl)methanol]	25 to 50	< 25	–	–
CCC[C@H]1CCC[C@H]([C@@H](O)c2cccc(Cl)c2)N1 [Compound 129, (S)-[(2R,6S)-6-propyl-2-piperidyl](m-chlorophenyl)methanol]	25 to 50	< 25	–	–
CCC[C@H]1CC[C@@H]([C@H](O)c2cccc(F)c2)N1 [Compound 130]	25 to 50	< 25	–	–
CCC[C@H]1CC[C@@H]([C@@H](O)c2cccc(F)c2)N1 [Compound 131, (S)-[(2S,5S)-5-propyl-2-pyrrolidinyl](m-fluorophenyl)methanol]	50 to 75	< 25	–	–
CCC[C@@H]1CC[C@@H]([C@H](O)c2cccc(F)c2)N1 [Compound 132, (R)-[(2S,5R)-5-propyl-2-pyrrolidinyl](m-fluorophenyl)methanol]	25 to 50	< 25	–	–
CCC[C@@H]1CC[C@@H]([C@@H](O)c2cccc(F)c2)N1 [Compound 133, (S)-[(2S,5R)-5-propyl-2-pyrrolidinyl](m-fluorophenyl)methanol]	50 to 75	< 25	–	–
CC(C)(C)NCC(O)c1ccncc1O (stereo not shown) [Compound 134, 4-[2-(tert-butylamino)-1-hydroxyethyl]-3-pyridinol]	> 75	< 25	–	–
CCC[C@H]1CCC[C@H]([C@H](O)c2ccccc2Cl)N1 [Compound 135, (R)-[(2R,6S)-6-propyl-2-piperidyl](o-chlorophenyl)methanol]	25 to 50	< 25	–	–
CCC[C@@H]1CCC[C@@H]([C@H](O)c2cccc(O)c2)N1 [Compound 136, (R)-[(2S,6R)-6-propyl-2-piperidyl](m-hydroxyphenyl)methanol]	> 75	< 25	–	–
CCC[C@@H]1CCC[C@H]([C@@H](O)c2cccc(O)c2)N1 [Compound 137, (S)-[(2R,6R)-6-propyl-2-piperidyl](m-hydroxyphenyl)methanol]	25 to 50	< 25	–	–
CC(C)(C)NC[C@H](O)c1cncc(Cl)c1 [Compound 138, (R)-2-(tert-butylamino)-1-(5-chloro-3-pyridyl)-1-ethanol]	> 75	> 75	–	–
CCC[C@H]1CCC[C@H]([C@@H](O)c2cncc(F)c2)N1 [Compound 139, (S)-[(2R,6S)-6-propyl-2-piperidyl](5-fluoro-3-pyridyl)methanol]	< 25	< 25	–	–
CCC[C@H]1CCC[C@H]([C@H](O)c2cncc(F)c2)N1 [Compound 140, (R)-[(2R,6S)-6-propyl-2-piperidyl](5-fluoro-3-pyridyl)methanol]	< 25	< 25	–	–

Structure (SMILES)	Emax at 10 µM [1] [%]	Emax at 10 µM [2] [%]	Biological example 1 of WO 2019/053427 (GU) [1]	Biological example of WO 2019/053427 (cAMP) [2]
CCC[C@@H]1CC[C@H]([C@H](O)c2cccc(Cl)c2)N1 [Compound 141, (R)-[(2R,5R)-5-propyl-2-pyrrolidinyl](m-chlorophenyl)methanol]	50 to 75	< 25	–	–
CC1(C)CC[C@@H]([C@H](O)c2cccc(O)c2)N1 [Compound 142, m-{(R)-[(S)-5,5-dimethyl-2-pyrrolidinyl]hydroxymeth-yl}phenol]	25 to 50	< 25	–	–
CC1(C)CC[C@@H]([C@@H](O)c2cccc(O)c2)N1 [Compound 143, m-{(S)-[(S)-5,5-dimethyl-2-pyrrolidinyl]hydroxymeth-yl}phenol]	< 25	< 25	–	–
CC1(C)CC[C@@H]([C@H](O)c2cccc(F)c2)N1 [Compound 144, (R)-[(S)-5,5-dimethyl-2-pyrrolidinyl](m-fluorophenyl)methanol]	< 25	< 25	–	–
CC1(C)CC[C@@H]([C@@H](O)c2cccc(F)c2)N1 [Compound 145, (S)-[(S)-5,5-dimethyl-2-pyrrolidinyl](m-fluorophenyl)methanol]	25 to 50	< 25	–	–
CC(C)(C)NC[C@H](O)c1ncccc1Cl [Compound 146, (S)-2-(tert-butylamino)-1-(3-chloro-2-pyridyl)-1-ethanol]	25 to 50	< 25	–	–
CC(C)(C)NC[C@H](O)c1ccc(Cl)cn1 [Compound 147, (S)-2-(tert-butylamino)-1-(5-chloro-2-pyridyl)-1-ethanol]	25 to 50	< 25	–	–
CCC[C@@H]1CC[C@H]([C@H](O)c2ccccc2Cl)N1 [Compound 148, (R)-[(2R,5R)-5-propyl-2-pyrrolidinyl](o-chlorophenyl)methanol]	> 75	< 25	–	–
CC(C)(C)NC[C@H](O)c1ccc(F)c(N)c1F [Compound 149, (R)-1-(3-amino-2,4-difluorophenyl)-2-(tert-butylamino)-1-ethanol]	> 75	25 to 50	–	–
Cc1c(F)cccc1[C@@H](O)CNC(C)(C)C [Compound 150, (R)-2-(tert-butylamino)-1-(3-fluoro-2-tolyl)-1-ethanol]	> 75	25 to 50	–	–
CC1(C)CC[C@H]([C@@H](O)c2ccccc2Cl)N1 [Compound 151, (S)-[(R)-5,5-dimethyl-2-pyrrolidinyl](o-chlorophenyl)methanol]	–	< 25	− (less than 25%)	–
CC1(C)CC[C@H]([C@@H](O)c2ccccc2Cl)N1 [Compound 152]	–	–	+++ (more than 75% of that of isoproterenol at 10 μM)	− (less than 25%)
CC1(C)CC[C@H]([C@@H](O)c2cccc(Cl)c2)N1 [Compound 153, (S)-[(R)-5,5-dimethyl-2-pyrrolidinyl](m-chlorophenyl)methanol]	25 to 50	< 25	–	–
CC1(C)CC[C@H]([C@H](O)c2cccc(Cl)c2)N1 [Compound 154, (R)-[(R)-5,5-dimethyl-2-pyrrolidinyl](m-chlorophenyl)methanol]	> 75	< 25	–	–
CCC[C@H]1CCC[C@H]([C@@H](O)c2cccc(O)c2)N1 [Compound 155, (S)-[(2R,6S)-6-propyl-2-piperidyl](m-hydroxyphenyl)methanol]	< 25	< 25	–	–
CC1(C)CC[C@H]([C@@H](O)c2cncc(F)c2)N1 [Compound 156, (S)-[(R)-5,5-dimethyl-2-pyrrolidinyl](5-fluoro-3-pyridyl)methanol]	< 25	< 25	–	–
CC1(C)CC[C@H]([C@H](O)c2cncc(F)c2)N1 [Compound 157, (R)-[(R)-5,5-dimethyl-2-pyrrolidinyl](5-fluoro-3-pyridyl)methanol]	> 75	< 25	–	–
CCCC1(CCC)CC[C@H]([C@@H](O)c2cccc(F)c2)N1 [Compound 158, (S)-[(R)-5,5-dipropyl-2-pyrrolidinyl](m-fluorophenyl)methanol]	< 25	< 25	–	–
CCCC1(CCC)CC[C@H]([C@H](O)c2cccc(F)c2)N1 [Compound 159, (R)-[(R)-5,5-dipropyl-2-pyrrolidinyl](m-fluorophenyl)methanol]	50 to 75	< 25	–	–
CCC[C@@H]1CC[C@H]([C@H](O)c2cncc(F)c2)N1 [Compound 160, (R)-[(2R,5R)-5-propyl-2-pyrrolidinyl](5-fluoro-3-pyridyl)methanol]	–	< 25	+++ (more than 75% of that of isoproterenol at 10 μM)	–
